Drawing on patent publication US5411977A, “Substituted 2,5-diaryl-4-isothiazolin-3-ones as antiinflammatory and antithrombotic agents” (The Dupont Merck Pharmaceutical Company, priority 1993, dated 1995), this text covers IC50 and inhibition for 38 molecules.

The test system of the first assay is IL-lb-induced proteoglycan breakdown in bovine nasal cartilage. The experiment in a line: in vitro cytokine-induced cartilage degradation assay (Bovine Nasal Septum Cartilage Degradation Assay). In kind it is cell-based. The conditions noted are these: Bos taurus; IL-lb (500 ng/ml), 40 hours, 37° C. The method, then: The compounds are efficacious in an in vitro cytokine-induced cartilage degradationassay (Arner EC and Pratta MA 1989. Arthritis Rheum 32:288-297). The activity of these compounds in blocking IL-lb-induced proteoglycan breakdown in bovine nasal cartilage was assessed.
Bovine nasal cartilage was incubated in Dulbecco's 10 modified Eagle's Medium (DMEM) containing 5% FCS and antibiotics at 37° C. in an atmosphere of 95% air and 5% CO2 for 40 hours in the absence or presence of IL-lb (500 ng/ml), with or without compound. Compounds were dissolved in DMSO (10^-2M) and further diluted with 15 medial to the required concentration and were included throughout the culture period. At the end of incubation, media were removed and assayed proteoglycan breakdown products using the 1,9 dimethylmethylene blue assay for glycosaminoglycans. Compounds were evaluated for the ability to block the stimulated release of proteoglycan in response to IL-l.
Take `O=c1cc(-c2ccccc2Cl)sn1-c1ccccc1` [Example 11]: the IC50 (as a rule, the midpoint of a concentration-inhibition curve) was 11.2 µM. This counts as double-digit micromolar.
On the same count and under the same terms, the value for `CCOC(=O)c1ccc(-n2sc(-c3ccccc3)cc2=O)cc1` [Example 4, N-(4-carbethoxyphenyl)-5-phenyl-4-isothiazolin-3-one] was 8.3 µM; that for `Cc1cc([N+](=O)[O-])ccc1-n1sc(-c2ccccc2)cc1=O` [Example 17] was 14 µM.
The same measure, in the same setting: the value for `CCOC(=O)c1cccc(-n2sc(-c3ccccc3)cc2=O)c1` [Example 37] was 7.8 µM; that for `O=c1cc(-c2ccccc2)sn1-c1ccc(C(F)(F)F)cc1` [Example 15] was 7.2 µM; that for `O=c1cc(-c2ccccc2)sn1-c1cccc(Cl)c1` [Example 19] was 11.3 µM.
The molecule `COc1cccc(-n2sc(-c3ccccc3)cc2=O)c1` [Example 20] registered an IC50 of 19 µM.
The same measure, in the same setting: the value for `N#Cc1ccc(-n2sc(-c3ccccc3)cc2=O)cc1` [Example 18] was 7.8 µM; that for `O=c1cc(-c2ccc(Cl)cc2)sn1-c1ccccc1` [Example 28] was 14.8 µM.
On the same count and under the same terms, the value for `CCOC(=O)c1ccccc1-n1sc(-c2ccccc2)cc1=O` [Example 38] was 12 µM; that for `O=c1cc(-c2ccccc2)sn1-c1cccc(C(F)(F)F)c1` [Example 21] was 7 µM.
On the same count and under the same terms, the value for `O=c1cc(-c2ccccc2)sn1-c1ccc([N+](=O)[O-])cc1` [Example 16] was 31 µM.
`O=c1c(-c2ccccc2)c(-c2ccccc2)sn1-c1ccccc1` [Example 10, 4,5,N-triphenyl-4-isothiazolin-3-one] had an IC50 of 43.5 µM.
The molecule `O=c1cc(-c2cccc(Cl)c2)sn1-c1ccccc1` [Example 29] had an IC50 of 18.5 µM.
Same read-out and setting: the value for `O=c1cc(-c2ccccc2)sn1-c1nc2ccccc2s1` [Example 8, N-(2-benzothiazolyl)-5-phenyl-4-isothiazolin-3-one] was 15 µM; that for `O=c1cc(-c2cccc(C(F)(F)F)c2)sn1-c1ccccc1` [Example 33] was 14 µM; that for `Cc1ccc(-n2sc(-c3ccccc3)cc2=O)cc1` [Example 1, N-(4-methylphenyl)-5-phenyl-4-isothiazolin-3-one] was 13.2 µM.
Still for that read-out and setting: the value for `O=c1cc(-c2ccccc2)sn1-c1ccc(Cl)cc1` [Example 13] was 14.8 µM; that for `COc1ccccc1-c1cc(=O)n(-c2ccccc2)s1` [Example 12] was 34.5 µM.
On the same count and under the same terms, the value for `O=c1cc(-c2ccccc2C(F)(F)F)sn1-c1ccccc1` [Example 34] was 7.2 µM.

Still in this assay, the particulars now being: Bos taurus; at 30 μM; IL-lb (500 ng/ml), 40 hours, 37° C.
Regarding `O=C(O)c1ccc(-n2sc(-c3ccccc3)cc2=O)cc1` [Example 3, N-(4-carboxyphenyl)-5-phenyl-4-isothiazolin-3-one], the inhibition (usually the share of the control response that was lost under treatment) at 30 µM came out at 19%.
Still for that read-out and setting: the value for `O=c1c(Br)c(-c2ccccc2)sn1-c1ccccc1` [Example 2, 4-bromo-N,5-diphenyl-4-isothiazolin-3-one] was 38%; that for `O=c1cc(-c2ccccc2)sn1-c1ccccc1C(F)(F)F` [Example 25] was 25%; that for `Cc1ccccc1-n1sc(-c2ccccc2)cc1=O` [Example 22] was 52%.
Regarding `Cc1cc(N)ccc1-n1sc(-c2ccccc2)cc1=O` [Example 40], the inhibition at 30 µM was found to be 14%.
Same read-out and setting: the value for `NC(=O)c1ccc(-n2sc(-c3ccccc3)cc2=O)cc1` [Example 5, N-(4-carboxamidophenyl)-5-phenyl-4-isothiazolin-3-one] was 42%; that for `O=c1cc(-c2ccccc2)sn1-c1ccc(N(S(=O)(=O)C(F)(F)F)S(=O)(=O)C(F)(F)F)cc1` [Example 7, N-(4-(bistrifluoromethane)sulfonamidophenyl)-5-phenyl-4-isothiazolin-3-one] was 48%; that for `Nc1ccc(-n2sc(-c3ccccc3)cc2=O)cc1` [Example 39, N-(4-aminophenyl)-5-phenyl-4-isothiazolin-3-one] was 32%.
The same measure, in the same setting: the value for `COc1ccc(-n2sc(-c3ccccc3)cc2=O)cc1` [Example 14] was 85%; that for `Nc1ccccc1-n1sc(-c2ccccc2)cc1=O` [Example 6, N-(2-aminophenyl) -5-phenyl-4-isothiazolin-3-one] was 19%.
For the molecule `O=C(O)c1ccccc1-n1sc(-c2ccccc2)cc1=O` [Example 36], the inhibition at 30 µM was found to be 26%.
`O=c1cc(-c2ccccc2)sn1-c1ccccc1Cl` [Example 23] returned an inhibition at 30 µM of 33%.
On the same count and under the same terms, the value for `O=c1cc(-c2ccccc2)sn1-c1ccccc1[N+](=O)[O-]` [Example 26, N-(2-nitrophenyl)-5-phenyl-4-isothiazolin-3-one] was 43%.
`COc1ccccc1-n1sc(-c2ccccc2)cc1=O` [Example 24] yielded an inhibition at 30 µM of 61%.
Still for that read-out and setting: under `O=c1cc(-c2ccc(C(F)(F)F)cc2)sn1-c1ccccc1` [Example 32] stands 25%.
Still for that read-out and setting: under `O=C(O)c1ccc(-c2cc(=O)n(-c3ccccc3)s2)cc1` [Example 9, 5-(4-carboxyphenyl)-N-phenyl-4-isothiazolin-3-one] stands 18%.
Same read-out and setting: the value for `O=C(O)c1cccc(-n2sc(-c3ccccc3)cc2=O)c1` [Example 35] was 13%.
The molecule `COc1ccc(-c2cc(=O)n(-c3ccccc3)s2)cc1` [Example 30] returned an inhibition at 30 µM of 37%.
